Patent publication US5444064A, “Method of treating gastrointestinal malignancies” (Montefiore Medical Center, priority 1989, dated 1995)

Legend:
HT-29 cells = assay: Cytokinetic studies (cell cycle distribution by flow cytometry), HT-29; format: cell-based, human
SW480 cells = assay: Cytokinetic studies (cell cycle distribution by flow cytometry), SW480; format: cell-based, human
[1] = tested on: disseminated colorectal cancer; settings: cited from earlier work
[2] = 5-fluorouracil 50-500 uM, 24 hour incubation

For `O=c1[nH]cc(F)c(=O)[nH]1` [5-fluorouracil], the “depletion of G2M” value (HT-29 cells; [2]) was “nearly complete depletion of G2M”, the “time to depletion of G2M compartment” value (HT-29 cells; time course, from start of incubation) was at most 7 h and the “depletion of G2M” value (SW480 cells; [2]) was “nearly complete depletion of G2M”. The “effect on cell cycle versus HT-29” value (SW480 cells; 5-fluorouracil and alpha-2a-interferon alone or in combination, data not shown) was “qualitatively identical effects”, the “prolongation of the block in G0/G1” value (SW480 cells; data not shown) was 24 h and the “completeness and duration of response” value ([1]; human, in vivo) was “rarely respond completely and the duration of the response is generally short”. The remissions ([1]; patients with disseminated colorectal cancer) was 15-35% and the median survival ([1]; versus untreated controls) was “no better than that of untreated controls”.
